Results as given in PMC10222686, “Synthesis and Molecular Docking Studies of Alkoxy- and Imidazole-Substituted Xanthones as α-Amylase and α-Glucosidase Inhibitors” (Molecules, 2023).

Experiments:
α-amylase = biological target: T1, α-amylase (Sus scrofa, UniProt P00690); assay: α-Amylase inhibition assay (starch/DNS); type: biochemical, porcine; settings: mean ± SD, n = 4; for inhibition at 100 µM: NI = no inhibition; for IC50: compounds precipitate at 200 µM;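 on all read-outs here: reducing sugar measured by DNS colour at 540 nm, inhibition relative to enzyme reaction lacking test compound, blank without enzyme subtracted for background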
T1 construct: purchased Sigma-Aldrich; host or cells: porcine pancreas
T1 sequence (P00690 16-511): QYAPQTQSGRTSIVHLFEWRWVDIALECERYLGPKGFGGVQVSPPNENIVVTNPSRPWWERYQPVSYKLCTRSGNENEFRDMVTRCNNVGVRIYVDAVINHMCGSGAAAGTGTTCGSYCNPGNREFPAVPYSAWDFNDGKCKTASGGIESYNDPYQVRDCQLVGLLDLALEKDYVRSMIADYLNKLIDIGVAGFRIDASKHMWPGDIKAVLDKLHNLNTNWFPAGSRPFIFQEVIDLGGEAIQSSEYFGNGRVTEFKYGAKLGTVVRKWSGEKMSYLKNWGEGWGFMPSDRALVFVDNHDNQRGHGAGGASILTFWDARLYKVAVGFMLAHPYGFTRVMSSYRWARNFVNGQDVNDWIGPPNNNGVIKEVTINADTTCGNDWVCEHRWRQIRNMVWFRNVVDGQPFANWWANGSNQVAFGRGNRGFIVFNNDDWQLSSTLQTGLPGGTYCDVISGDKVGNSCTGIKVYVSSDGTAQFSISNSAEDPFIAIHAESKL
Description: α-Amylase inhibitory activity was quantified according to the method developed by Chokki et al., with some modifications [65]. […] Finally, 100 µL of 3,5-dinitrosalicylic acid (DNS) was added and heated at 100 °C for 20 min, and absorbance was then read at 540 nm in a microplate reader (Epoch, BioTek®). The reaction system without any test compound was used as the control, and the system without α-amylase served as a blank for correcting background absorbance. The percentage of α-amylase inhibition was calculated for each sample with Equation (2):(2) % inhibition=Control absorbance−sample absorbance/Control absorbance×100
(§1) All measurements were performed in quadruplicate and the values are expressed as the mean ± standard deviation.

α-glucosidase = assay: α-Glucosidase inhibition assay (p-NPG substrate); type: biochemical, Saccharomyces cerevisiae; settings: mean ± SD, n = 4
Description: The inhibitory activity of the compounds on α-glucosidase inhibition was quantified according to the method described by Salehi et al., with slight modifications [64]. A reaction was prepared by mixing 20 µL α-glucosidase solution (0.5 unit/mL), 120 µL 0.1 M phosphate buffer (pH 6.9), and 10 µL of the samples at concentrations from 400 µM to 4.0 µM. The solution was incubated in a 96-well microplate at 37 °C for 15 min. The enzymatic reaction was initiated by adding 20 µL of 5 mM p-NPG solution to 0.1 M phosphate buffer (pH 6.9), followed by incubation at 37 °C for 15 min. The reaction was stopped by adding 80 µL of 0.2 M sodium carbonate solution, and absorbance was read at 405 nm in a microplate reader (Epoch®, BioTek Instrument, Winooski, EUA). The reaction system without any test compounds was used as control, whereas the system without α-glucosidase served as blank for correcting background absorbance. The rate of α-glucosidase inhibition exerted by each sample was calculated with Equation (1):(1) % inhibition=Control absorbance−sample absorbance/Control absorbance×100
as §1

[1] = DPPH radical scavenging assay; settings: mean ± SD, n = 4
Description: The scavenging of free radicals by the synthesized compounds was assessed based on the previously reported DPPH radical assay, with slight modifications. The reaction mixture consisted of 50 µL of compound in DMSO at various concentrations (from 2.5 mM to 0.2 mM) and 150 µL of DPPH solution at 133.33 µM in absolute ethanol. The reaction components were added at a ratio of 1:3 (v/v). The mixture was incubated at 37 °C for 30 min before absorbance was read at 517 nm using a microplate reader (Epoch, BioTek®). Butylhydroxytoulene (BHT) served as the positive control. Scavenging capacity (%) is expressed as the percentage decrease in DPPH. SC% = [(Acontrol − Atest)/Acontrol] × 100 where Acontrol is absorbance of the DPPH solution (control) and Atest is the absorbance of the solution of DPPH and one of the compounds.

| Compound | inhibition at 100 µM (α-amylase) [%] | α-Glucosidase Inhibition (%) at 400 µM (α-glucosidase) [%] | IC50 (α-amylase) [µM] | IC50 (α-glucosidase) [µM] | melting point | % DPPH Scavenging Activity (2.5 mM) [1] |
| --- | --- | --- | --- | --- | --- | --- |
| C[C@H]1O[C@H](O[C@H]2[C@H](O)[C@@H](O)[C@@H](O[C@H]3[C@H](O)[C@@H](O)C(O)O[C@@H]3CO)O[C@@H]2CO)[C@H](O)[C@@H](O)[C@@H]1N[C@H]1C=C(CO)[C@@H](O)[C@H](O)[C@H]1O (stereo partly shown) [Acarbose, acarbose, reference compound] | 99.3 ± 0.06 | 63.18 ± 0.7 | – | – | – | – |
| Cc1cc(C(C)(C)C)c(O)c(C(C)(C)C)c1 [BHT, butylhydroxytoluene, reference compound] | – | – | – | – | – | 85.2 ± 3.33 ^A‡ % |
| COc1cc2oc3ccccc3c(=O)c2cc1O [Compound 1, 2-Hydroxy-3-methoxy-9H-xanthen-9-one] | 98.7 ± 0.11 | 26.5 ± 0.81 | 26.5 ± 0.01 | > 400 | – | – |
| COC(=O)/C(=C/N(C)C)Oc1cc2c(=O)c3ccccc3oc2cc1OC [Compound 5, Methyl (Z)-3-(dimethylamino)-2-((3-methoxy-9-oxo-9H-xanthen-2-yl)oxy)acrylate] | < 0 | 15.2 ± 0.16 | – | > 400 | – | 13.9 ± 1.14 ^E,F % |
| COC(=O)COc1cc2c(=O)c3ccccc3oc2cc1OC [Compound 6a, Methyl 2-((3-methoxy-9-oxo-9H-xanthen-2-yl)oxy)acetate] | 8.7 ± 0.2 | 99.5 ± 0.2 | > 200 | 143.6 ± 0.17 | 139 to 140 °C | 1.7 ± 0.91 ^H,I % |
| COc1cc2oc3ccccc3c(=O)c2cc1OCC(C)=O [Compound 6b, 3-Methoxy-2-(2-oxopropoxy)-9H-xanthen-9-one] | – | 9.3 ± 0.1 | – | > 400 | 144 to 145 °C | 11.8 ± 1.07 ^F,G % |
| C=CCOc1cc2c(=O)c3ccccc3oc2cc1OC [Compound 6d, 2-(Allyloxy)-3-methoxy-9H-xanthen-9-one] | < 0 | 22.1 ± 1.04 | – | > 400 | 150 to 151 °C | 3.9 ± 0.58 ^H,I % |
| C=CCc1c(OCC(=O)c2ccc(Cl)cc2)c(OC)cc2oc3ccccc3c(=O)c12 [Compound 6e, 1-Allyl-2-(2-(4-chlorophenyl)-2-oxoethoxy)-3-methoxy-9H-xanthen-9-one] | 60.3 ± 0.1 | 98.6 ± 0.90 | 68.1 ± 0.04 | 12.8 ± 0.01 | – | 10.4 ± 0.83 ^F,G % |
| C=CCc1c(O)c(OC)cc2oc3ccccc3c(=O)c12 [Compound 7, 1-Allyl-2-hydroxy-3-methoxy-9H-xanthen-9-one] | 7.8 ± 0.1 | 75.5 ± 0.50 | > 200 | 196.4 ± 0.07 | – | 45.9 ± 2.89 ^B† % |
| COc1cc2oc3ccccc3c(=O)c2c2c1OC(C)(C)C=C2 [Compound 8, 5-Methoxy-3,3-dimethylpyrano[3,2-a]xanthen-12(3H)-one] | < 0 | 38.3 ± 0.04 | – | > 400 | – | 1.9 ± 0.73 ^H,I % |
| COc1cc2oc3ccccc3c(=O)c2cc1OCCCCBr [Compound 9a, 2-(4-Bromobutoxy)-3-methoxy-9H-xanthen-9-one] | 62.9 ± 0.2 | 97.8 ± 0.3 | 73.5 ± 0.04 | 40 ± 0.018 | – | 19.5 ± 1.22 ^D % |
| COc1cc2oc3ccccc3c(=O)c2cc1OCCCCn1ccnc1 [Compound 10a, 2-(4-(1H-imidazol-1-yl)butoxy)-3-methoxy-9H-xanthen-9-one] | < 0 | 1.3 ± 0.01 | – | > 400 | 137 to 138 °C | 0.8 ± 0.01 ^I % |
| COc1cc2oc3ccccc3c(=O)c2cc1OCCCCn1ccnc1-c1ccccc1 [Compound 10b, 3-Methoxy-2-(4-(2-phenyl-1H-imidazol-1-yl)butoxy)-9H-xanthen-9-one] | 9.7 ± 0.21 | 90.2 ± 0.21 | > 200 | 212.4 ± 0.1 | 132 to 134 °C | 12.2 ± 0.08 ^F,G % |
| C=CCc1c(OCCCCn2ccnc2)c(OC)cc2oc3ccccc3c(=O)c12 [Compound 10d, 2-(4-(1H-Imidazol-1-yl)butoxy)-1-allyl-3-methoxy-9H-xanthen-9-one] | < 0 | 2.5 ± 0.01 | – | > 400 | – | 5.1 ± 0.08 ^H % |
| C=CCc1c(OCCCCn2ccnc2-c2ccc(Cl)cc2)c(OC)cc2oc3ccccc3c(=O)c12 [Compound 10f, 1-Allyl-2-(4-(2-(4-chlorophenyl)-1H-imidazol-1-yl)butoxy)-3-methoxy-9H-xanthen-9-one] | 93.3 ± 0.12 | 99.4 ± 0.51 | 8.7 ± 0.06 | 145.2 ± 0.17 | 90 to 92 °C | 11.2 ± 1.02 ^F,G % |

More lines, main results first:

| inhibition at 100 µM (α-amylase) [%] | α-Glucosidase Inhibition (%) at 400 µM (α-glucosidase) [%] | IC50 (α-amylase) [µM] | IC50 (α-glucosidase) [µM] | melting point | Compound | % DPPH Scavenging Activity (2.5 mM) [1] |
| --- | --- | --- | --- | --- | --- | --- |
| < 0 | 0.48 ± 0.02 | – | > 400 | 143 to 144 °C | COc1cc2oc3ccccc3c(=O)c2cc1OCC1CO1 (stereo not shown) [Compound 11a, 3-Methoxy-2-(oxiran-2-ylmethoxy)-9H-xanthen-9-one] | 19.8 ± 1.04 ^D % |
| 7.8 ± 0.5 | 99.7 ± 0.29 | > 200 | 120 ± 0.03 | 115 to 116 °C | C=CCc1c(OCC2CO2)c(OC)cc2oc3ccccc3c(=O)c12 (stereo not shown) [Compound 11b, 1-Allyl-3-methoxy-2-(oxiran-2-ylmethoxy)-9H-xanthen-9-one] | 18.4 ± 1.43 ^D % |
| < 0 | 1.87 ± 0.47 | – | > 400 | 146 to 148 °C | COc1cc2oc3ccccc3c(=O)c2cc1OCC(O)Cn1ccnc1 (stereo not shown) [Compound 12a, 2-(2-Hydroxy-3-(1H-imidazol-1-yl)propoxy)-3-methoxy-9H-xanthen-9-one] | 1.1 ± 0.01 ^I % |
| 8.7 ± 0.81 | 84.9 ± 0.57 | > 200 | 112.8 ± 0.12 | 157 to 159 °C | COc1cc2oc3ccccc3c(=O)c2cc1OCC(O)Cn1ccnc1-c1ccccc1 (stereo not shown) [Compound 12b, 2-(2-Hydroxy-3-(2-phenyl-1H-imidazol-1-yl)propoxy)-3-methoxy-9H-xanthen-9-one] | 16.3 ± 1.45 ^D,E % |
| 3.9 ± 0.55 | 97.5 ± 1.78 | > 200 | 210.9 ± 0.33 | 235 °C (dec.) | COc1cc2oc3ccccc3c(=O)c2cc1OCC(O)Cn1ccnc1-c1ccc(Cl)cc1 (stereo not shown) [Compound 12c, 2-(3-(2-(4-Chlorophenyl)-1H-imidazol-1-yl)-2-hydroxypropoxy)-3-methoxy-9H-xanthen-9-one] | 19.0 ± 0.22 ^D % |
| 1.5 ± 0.1 | 52.2 ± 0.87 | > 200 | 400.2 ± 0.24 | 187 to 189 °C | C=CCc1c(OCC(O)Cn2ccnc2)c(OC)cc2oc3ccccc3c(=O)c12 (stereo not shown) [Compound 12d, 1-Allyl-2-(2-hydroxy-3-(1H-imidazol-1-yl)propoxy)-3-methoxy-9H-xanthen-9-one] | 10.1 ± 0.87 ^G % |
| 2.4 ± 0.15 | 96.6 ± 1.45 | > 200 | 104.9 ± 0.01 | 187 to 189 °C | C=CCc1c(OCC(O)Cn2ccnc2-c2ccccc2)c(OC)cc2oc3ccccc3c(=O)c12 (stereo not shown) [Compound 12e, 1-Allyl-2-(2-hydroxy-3-(2-phenyl-1H-imidazol-1-yl)propoxy)-3-methoxy-9H-xanthen-9-one] | 17.6 ± 1.14 ^D % |
| 4.7 ± 0.32 | 99.1 ± 1.31 | > 200 | 71.9 ± 0.08 | 116 to 118 °C | C=CCc1c(OCC(O)Cn2ccnc2-c2ccc(Cl)cc2)c(OC)cc2oc3ccccc3c(=O)c12 (stereo not shown) [Compound 12f, 1-Allyl-2-(3-(2-(4-chlorophenyl)-1H-imidazol-1-yl)-2-hydroxypropoxy)-3-methoxy-9H-xanthen-9-one] | 18.1 ± 1.57 ^D % |
